From patent publication US20240391941A1, “NAPHTHYRIDINONE DERIVATIVES FOR THE TREATMENT OF A DISEASE OR DISORDER” (Novartis AG, priority 2023, published 2024) come the findings set out here.

One data set addresses T1, GIRK1/4 (Homo sapiens, UniProt P48544+P48549).
T1 sequence (P48549 1-501): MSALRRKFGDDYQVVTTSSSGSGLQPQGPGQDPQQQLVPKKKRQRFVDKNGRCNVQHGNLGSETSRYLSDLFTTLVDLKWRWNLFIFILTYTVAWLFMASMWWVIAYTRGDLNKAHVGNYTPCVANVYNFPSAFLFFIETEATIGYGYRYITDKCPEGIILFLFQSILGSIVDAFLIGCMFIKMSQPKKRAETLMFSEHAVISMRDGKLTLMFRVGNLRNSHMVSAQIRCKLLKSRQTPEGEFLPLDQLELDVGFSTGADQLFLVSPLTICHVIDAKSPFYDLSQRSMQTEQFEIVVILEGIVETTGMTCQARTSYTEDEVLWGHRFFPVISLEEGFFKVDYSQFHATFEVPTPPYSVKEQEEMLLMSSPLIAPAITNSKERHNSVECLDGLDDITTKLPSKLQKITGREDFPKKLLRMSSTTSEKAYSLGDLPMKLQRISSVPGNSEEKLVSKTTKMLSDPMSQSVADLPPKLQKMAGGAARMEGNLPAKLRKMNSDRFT
T1 sequence (P48544 1-419): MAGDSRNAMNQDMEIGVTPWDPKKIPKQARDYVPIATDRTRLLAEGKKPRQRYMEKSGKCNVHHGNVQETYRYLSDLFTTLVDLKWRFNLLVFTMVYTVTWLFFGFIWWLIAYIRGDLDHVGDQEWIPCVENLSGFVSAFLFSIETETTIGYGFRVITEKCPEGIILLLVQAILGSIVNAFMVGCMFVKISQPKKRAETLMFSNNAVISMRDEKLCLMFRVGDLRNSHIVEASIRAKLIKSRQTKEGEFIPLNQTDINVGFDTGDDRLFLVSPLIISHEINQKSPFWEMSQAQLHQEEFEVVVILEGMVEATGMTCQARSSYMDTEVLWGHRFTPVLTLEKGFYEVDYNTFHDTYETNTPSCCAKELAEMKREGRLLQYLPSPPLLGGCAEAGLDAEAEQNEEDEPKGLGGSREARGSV
The experiment in a line: GIRK1/4 in vitro activity assay (IonWorks Quattro population patch clamp). In kind it is cell-based. The settings on record: GIRK 1/4 HEK293 stable cells, inward potassium current; read-out: inhibitory activity (IC50). How it is done:
The GIRK1/4 activity of the parent compounds formed after cleavage upon hydrolysis of the phosphoric acid ester group of the compounds according to the present disclosure was assessed by the following in vitro method.
• a. External buffer: 10 mM NaCl, 50 mM Na Gluconate, 80 mM K Gluconate, 1.8 mM CaCl2, 1 mM MgCl2, 10 mM HEPES, 10 mM Glucose, pH 7.4; osmolarity […]. • b. Internal buffer: 30 mM KCl, 100 mM K Gluconate, 1 mM MgCl2, 10 mM HEPES, 1 mM EGTA, 10 mM NaCl, pH 7.2; osmolarity […].
• c. Prepare seven-fold compound dilution series (10 mM to 20 μM) in 100% DMSO, in 384-well polypropylene plates. • d. Propafenone (Sigma Aldrich, catalog number P4670) was used as a positive control and DMSO for neutral control. • e. Resuspend 1 μl of compounds in DMSO into 66.7 μl external buffer in 384-well polypropylene plate and load into Plate 1 section of Molecular Devices Quattro.
• f. […]
Quattro was controlled using IonWorks v2 software to perform the following steps: • p. […] Measured magnitude of inward potassium current at time point between 1200-1220 ms from start of Pulse 1 (i.e. during the voltage ramp phase). • t. […]
IC50 values were calculated by plotting the percentage of current inhibition (normalized to the DMSO-only control) as a function of compound concentration using standard data analysis software.

Data set [1] is described as follows: In vitro conversion of pro-drug to parent compound by intestinal S9 fraction (rat). The format is in vitro ADME. To be noted: Sprague-Dawley, pooled intestinal S9 fraction, 37° C., read-out: T1/2 of conversion to the parent compound. On the procedure: (§1) Drug stock solutions (100 μM) were prepared in methanol by two subsequent 1:10 dilutions from 10 mM DMSO drug solutions.
(§2) Frozen pooled intestinal S9 fractions (final protein concentration 2 mg/mL), alamethicin (25 μg/mg). 0.IM phosphate buffer containing 1 mM magnesium chloride and NADPH (final concentration 1 mM) plus UDPGA (final concentration 3.5 mM) are pre incubated at 37° C. prior to the addition of test compound (final substrate concentration 1 μM; final DMSO concentration 0.25%) to initiate the reaction. An additional incubation is performed in the absence of cofactors (NADPH, UDPGA).
(§3) Incubation plate was incubated on a shaker with temperature controlled at 37° C. Sequential samples were removed at designated timepoints (0, 5, 15, 30, 60 and 120 mins) and quenched with 4 volumes of ice-cold acetonitrile (containing internal standard glyburide). At the end of the incubation, samples plates were centrifuged, and supernatants reconstituted in water. Samples were then analyzed by LC/MS to assess parent depletion.
(§4) A ratio of compound peak area/internal standard peak area for each time point is generated and subsequently expressed as % of the response at time 0. The percentage stability of a compound in intestinal S9 solution at time t is calculated as detailed in Equation 1: […]
(§5) The half-life (t1/2) is calculated using the Equation 2: […]

Data set [2] in a line: In vitro conversion of pro-drug to parent compound by intestinal S9 fraction (dog). In kind it is in vitro ADME. The settings on record: beagle, pooled intestinal S9 fraction, 37° C., read-out: T1/2 of conversion to the parent compound. How it is done: as §1, §2, §3, §4, §5
The nature of data set [3]: In vitro conversion of pro-drug to parent compound by intestinal S9 fraction (human). The format is in vitro ADME. The settings on record: pooled intestinal S9 fraction, 37° C., read-out: T1/2 of conversion to the parent compound. On the procedure:
as §1, §2, §3, §4, §5

Regarding `CNC(=O)[C@@H](O)COc1ncc(Cl)c2c1c(=O)cc(C)n2-c1c(Cl)cc(OCCOP(=O)(O)O)cc1Cl` [Example 1, (S)-2-(3,5-dichloro-4-(8-chloro-5-(2-hydroxy-3-(methylamino)-3-oxopropoxy)-2-methyl-4-oxo-1,6-naphthyridin-1 (4H)-yl)phenoxy)ethyl dihydrogen phosphate], at GIRK1/4, the IC50 was above 10 µM.
Regarding `CNC(=O)[C@@H](O)COc1ncc(Cl)c2c1c(=O)cc(C)n2-c1c(Cl)cc(OCCOP(=O)(O)O)cc1Cl.[Ca]` [Example 1a, (S)-2-(3,5-dichloro-4-(8-chloro-5-(2-hydroxy-3-(methylamino)-3-oxopropoxy)-2-methyl-4-oxo-1,6-naphthyridin-1(4H)-yl)phenoxy)ethyl dihydrogen phosphate calcium salt], the half-life at 1 μM came to 14.4 min in data set [1] (rat intestinal S9, + cofactor (NADPH, UDPGA)); 16.5 min in data set [1] (rat intestinal S9, − cofactor); 45.3 min in data set [2] (dog intestinal S9, + cofactor (NADPH, UDPGA)); 46 min in data set [2] (dog intestinal S9, − cofactor); 88.7 min in data set [3] (human intestinal S9, + cofactor (NADPH, UDPGA)); 86.7 min in data set [3] (human intestinal S9, − cofactor).
For the molecule `CNC(=O)[C@H](COc1ncc(Cl)c2c1c(=O)cc(C)n2-c1c(Cl)cc(OCCO)cc1Cl)OP(=O)(O)O` [Example 2, (S)-3-((8-chloro-1-(2,6-dichloro-4-(2-hydroxyethoxy)phenyl)-2-methyl-4-oxo-1,4-dihydro-1,6-naphthyridin-5-yl)oxy)-1-(methylamino)-1-oxopropan-2-yl dihydrogen phosphate], at GIRK1/4, the concentration for half-maximal inhibition (IC50) was above 10 µM.
